The NIST ThermoML archive (doi:10.1016/j.jct.2007.07.002)
Values joined by “and” are separate entries in the source; they are usually repeats but may differ in a detail not shown here. Equal entries are not always repeated.

Details: Gas, double Helmholtz acoustic resonator

FC1(F)C(F)(F)C(F)(F)C1(F)F [octafluorocyclobutane]
Details	kinematic viscosity [m2/s]	speed of sound
300 K, 160.13 kPa	8.54e-07	109.85 m/s
300 K, 180.38 kPa	7.62e-07	109.17 m/s
300 K, 209.45 kPa	6.47e-07	108.13 m/s
300 K, 239.58 kPa	5.55e-07	107.04 m/s
310 K, 167.11 kPa	1.04e-06	111.91 m/s
310 K, 212.21 kPa	6.65e-07	110.44 m/s
310 K, 259.63 kPa	5.45e-07	108.88 m/s
310 K, 319.54 kPa	4.4e-07	106.84 m/s
310 K, 359.99 kPa	4.21e-07	105.47 m/s
315 K, 195.64 kPa	7.57e-07	112.23 m/s
315 K, 234.75 kPa	6.39e-07	111.1 m/s
315 K, 272.93 kPa	5.38e-07	109.92 m/s
315 K, 312.27 kPa	4.61e-07	108.66 m/s
315 K, 357.7 kPa	3.99e-07	107.16 m/s
315 K, 410.27 kPa	3.42e-07	105.34 m/s
320 K, 122.6 kPa	1.12e-06	115.18 m/s
320 K, 172.92 kPa	9.2e-07	113.83 m/s
320 K, 222.82 kPa	6.6e-07	112.47 m/s
320 K, 274.43 kPa	5.38e-07	111.03 m/s
320 K, 326.85 kPa	4.48e-07	109.44 m/s
320 K, 380.03 kPa	3.92e-07	107.76 m/s
320 K, 482.22 kPa	2.95e-07	104.31 m/s
330 K, 117.49 kPa	1.43e-06	117.54 m/s
330 K, 189.29 kPa	8.81e-07	115.79 m/s
330 K, 215.35 kPa	7.77e-07	115.12 m/s
330 K, 288.39 kPa	5.63e-07	113.25 m/s
330 K, 290.78 kPa	5.67e-07	113.11 m/s
330 K, 368.85 kPa	4.3e-07	111.06 m/s
330 K, 376.53 kPa	4.2e-07	110.78 m/s
330 K, 450.7 kPa	3.45e-07	108.71 m/s
330 K, 465.61 kPa	3.3e-07	108.18 m/s
330 K, 534.61 kPa	2.83e-07	106.13 m/s
330 K, 536.09 kPa	2.8e-07	106 m/s
330 K, 621.46 kPa	2.37e-07	103.15 m/s and 103.25 m/s
345.04 K, 244.86 kPa	7.3e-07	117.72 m/s
345.04 K, 347.35 kPa	5.14e-07	115.42 m/s
345.04 K, 445.79 kPa	3.86e-07	113.12 m/s
345.04 K, 553.32 kPa	3.05e-07	110.35 m/s
345.04 K, 652.37 kPa	2.52e-07	107.68 m/s
345.04 K, 772.66 kPa	2.06e-07	104.17 m/s
345.04 K, 881.89 kPa	1.76e-07	100.69 m/s
360 K, 216.1 kPa	9.15e-07	121.47 m/s
360 K, 407.3 kPa	4.74e-07	117.75 m/s
360 K, 609.73 kPa	3.2e-07	113.46 m/s
360 K, 802.73 kPa	2.19e-07	108.94 m/s
360 K, 1012.2 kPa	1.68e-07	103.47 m/s
360 K, 1203.3 kPa	1.35e-07	97.73 m/s
375 K, 183.85 kPa	1.12e-06	124.97 m/s
375 K, 378.87 kPa	5.53e-07	121.72 m/s
375 K, 568.99 kPa	3.54e-07	118.34 m/s
375 K, 758.63 kPa	2.59e-07	114.75 m/s
375 K, 960.1 kPa	2.05e-07	110.61 m/s
375 K, 1188.2 kPa	1.56e-07	105.48 m/s
375 K, 1402 kPa	1.28e-07	100.08 m/s
375 K, 1620.4 kPa	1.06e-07	93.75 m/s
